Series [1] can be described thus: EDTA challenge of 52Mn-labeled complexes (transchelation). Type of series: physicochemical. To be noted: 0.2 M H4EDTA (pH 7.4), room temperature, 7 days. The procedure: EDTA challenge of [[^52Mn]Mn(3,9-PC2A)] and [[^52Mn]Mn(3,9-OPC2A)]. 50 µL aqueous solution of each radiolabeled complex (~3.75 MBq) was incubated with 50 µL of 0.2 M EDTA (pH 7.4) solution at room temperature. Aliquots were taken and analyzed by the radio-TLC method, as mentioned above, at the beginning and after 1, 2, 3, and 20 h, and 2, 3, and 7 days incubation time.

Series [2] in a line: Stability test of 52Mn-labeled complexes in rat serum (radio-TLC). Type of series: in vitro ADME. To be noted: room temperature, up to 7 days. The procedure: Stability test of [[^52Mn]Mn(3,9-PC2A)] and [[^52Mn]Mn(3,9-OPC2A)] in rat serum. 100 µL aqueous solution of each radiolabeled complex (~7.5 MBq) was mixed with 100 uL of rat serum, and incubated at room temperature. Aliquots were taken and analyzed at the beginning and after 1, 2, 3, and 20 h, and 2, 3, and 7 days later, by the radio-TLC method, as explained mentioned above.

A short description of series [3]: Metal challenge of 52Mn-labeled complexes (transmetalation). Type of series: physicochemical. The note with it: ZnCl2, CuCl2, MgCl2, CaCl2 mixture, room temperature, 7 days. The procedure:
Metal challenge of [[^52Mn]Mn(3,9-PC2A)] and [[^52Mn]Mn(3,9-OPC2A)]. 49 µL aqueous solution of each radiolabeled complex (~3.75 MBq) was incubated with a 1:1 mixture of 0.1 mM ZnCl2 and 0.01 mM CuCl2 (1 µL), and a 1:1 mixture of 1.02 mM MgCl2 and 2.28 mM CaCl2 (50 µL) at room temperature. Samples were taken from the mixtures at the beginning and after 1, 2, 3, and 20 h, and 2, 3, and 7 days later. For the analysis of the samples, the above-mentioned radio-TLC method was applied.

A short description of series [4]: Octanol/water partition coefficient (logP) of 52Mn-labeled complexes. Type of series: physicochemical. As for the experimental part: Determination of logP values of the [[^52Mn]Mn(3,9-PC2A)] and [[^52Mn]Mn(3,9-OPC2A)] chelates. 100 µL aqueous solution of each radiolabeled complex (~7.5 MBq) was added to 100 µL of octanol. The mixture was shaken with a vortex shaker (5 min, 1000 rpm) and centrifuged (5 min, 10,000 rpm). A total of 3 × 20 µL from the octanol and 3 × 20 µL from the water were pipetted into test tube, respectively. The radioactivity of the samples was measured with a gamma detector.

The conditions of series [5]: T = 25 °C, cited from earlier work; for pMn: pMn = −log(Mn(II)free), cMn^2+ = cligand = 1 × 10^−5 M, pH = 7.4; for pMn / log KMnL: 20 (H21,7-O2DO2A).
For series [6] the following is noted: pH = 6.0, 25 equivalents of Zn(II), 37 °C, cited from earlier work.
The conditions of series [7]: cited from earlier work.
The conditions of series [8]: cited from earlier work. This is another data set of the same source.
For series [9] the following is noted: Mn(II) complex, 25 °C, pH = 7.4, cited from earlier work.
The conditions of series [10]: Cu^2+ complex, T = 25 °C, I = 0.15 M NaCl, cited from earlier work; for log KMnHL / log KMnL: ref 16 (PC2A ligands), 12 (DO2A ligands), 20 (H21,7-O2DO2A).
The conditions of series [11]: Mg^2+ complex, cited from earlier work.
The conditions of series [12]: Zn^2+ complex, T = 25 °C, I = 0.15 M NaCl, cited from earlier work.
The conditions of series [13]: Ca^2+ complex, cited from earlier work.
The conditions of series [14]: T = 25 °C, I = 0.15 M NaCl, ref 16 (PC2A ligands), 12 (DO2A ligands), cited from earlier work; for log K1^H / log K2^H / log K3^H / Σlog Κ2^H: 20 (H21,7-O2DO2A); for Σlog Κ2^H: log K1^H + log K2^H.
Where [15] appears, read: ref 16 (PC2A ligands), 12 (DO2A ligands).
Where [16] appears, read: 0.49 T, ref 16 (PC2A ligands), 12 (DO2A ligands), 20 (H21,7-O2DO2A).
[17] abbreviates: Mn^2+ complex, I = 0.15 M NaCl, ref 16 (PC2A ligands), 12 (DO2A ligands).
Setting [18] is: T = 25 °C, I = 0.15 M NaCl, ref 16 (PC2A ligands), 20 (H21,7-O2DO2A).
[19] abbreviates: ref 16 (PC2A ligands), 12 (DO2A ligands), 20 (H21,7-O2DO2A).
Where [20] appears, read: T = 25 °C, I = 0.15 M NaCl, ref 16 (PC2A ligands), 12 (DO2A ligands), 20 (H21,7-O2DO2A).

Where two headings read alike, the source gives them in different places. Marks after values point to notes of the source that are not given here.

Regarding `O=C([O-])CN1CCOCCN(CC(=O)[O-])Cc2cccc(n2)C1.[52Mn+2]` [[[^52Mn]Mn(3,9-OPC2A)]], in [1], the “transchelation in H4EDTA challenge” value was “slower and was not completed after seven days”. For the same molecule, in series [2], the “stability in rat serum” value is “remained intact even after seven days”. Besides, the “complex dissociated in metal challenge” value in series [3] was “about 30%”. The logP (usually the decadic logarithm of the partition coefficient of the neutral form, usually between octanol and water) in [4] is listed as −2.56.

In the case of `O=C([O-])CN1CCNCCN(CC(=O)[O-])Cc2cccc(n2)C1.[52Mn+2]` [[[^52Mn]Mn(3,9-PC2A)]], the “transchelation in H4EDTA challenge” value in [1] was “transchelation was complete”. Besides, the “stability in rat serum” value in [2] was “remained intact even after seven days”. Further, the “inertness in metal challenge” value in series [3] is recorded as “stayed intact”. Also, the log partition coefficient (logP) in series [4] was −2.51.

`O=C([O-])CN1CCNCCN(CC(=O)[O-])Cc2cccc(n2)C1.[Mn+2]` [[Mn(3,9-PC2A)]]: the pMn in series [5] (setting [15]) was 8.64. Besides, in series [6] (previously reported), the kobs entry is reported as “(3.28 ± 0.03) × 10^−4 s^−1”. In addition, the “t1/2 (h) at pH = 7.4” value in [7] (extrapolated to pH = 7.4, ref 16 (PC2A complexes), 12, 13, 20) was 21.0 h. In addition, in series [7] (metal assisted dissociation, T = 25 °C, I = 0.15 M NaCl), the k3 is 0.036 M⁻¹ s⁻¹. In [7] (proton assisted dissociation, T = 25 °C, I = 0.15 M NaCl, ref 16 (PC2A complexes), 12, 13, 20), the k1 was 221 M⁻¹ s⁻¹. Also, the “KMnL x H” value in [7] (protonation constant of the complex from kinetic fit, T = 25 °C, I = 0.15 M NaCl) is on record as 3.6 × 10^3. The KML x Cu in series [7] (stability constant of dinuclear intermediate, T = 25 °C, I = 0.15 M NaCl, unit assumed) is 26 M⁻¹. Also, the “r1^298_20 MHz” value in series [8] (20 MHz, 298 K) is 2.91 mM⁻¹ s⁻¹. The “ΔH^‡” value in series [8] (activation enthalpy of water exchange) is 37.5 kJmol^−1. The q in series [8] (hydration number, fixed during the fitting procedure) was 1. The “kex^298” value in [8] (water exchange rate with bulk solvent) is 1.26e+08 s⁻¹; in series [8] (water exchange rate), 12.6 10^7s^−1.

As for `O=C(O)CN1CCNCCN(CC(=O)O)Cc2cccc(n2)C1` [H23,9-PC2A, pyclen-3,9-diacetate], the r2p in series [9] (0.49 T) was 3.96 mM⁻¹ s⁻¹; in [9] (1.41 T), 4.82 mM⁻¹ s⁻¹. For the same molecule, the values for the r1p in [9] (setting [16]) and in [9] (1.41 T) were 2.91 mM⁻¹ s⁻¹ and 2.24 mM⁻¹ s⁻¹, respectively. The “log KMnL” value in series [5] (setting [17]) is 17.09; in series [10], 23.58 ^g; in series [11] (setting [18]), 9.84; in series [11] (value in parenthesis), 8.4; in series [12] (setting [19]) it was 19.49; in series [13] (setting [20]) it was 9.92. Moreover, the “log KMnL” value in series [13] (value in parenthesis) is given as 10.0. Besides, the “log KMnHL” value in series [5] (setting [17]) was 2.14; in series [10], 2.12 ^g; in [11] (T = 25 °C, I = 0.15 M NaCl), 5.91; in series [12] (setting [15]), 2.74; in [13] (T = 25 °C, I = 0.15 M NaCl), 5.08. Moreover, in series [5] (setting [15]), the pMn is 8.64. Also, the “log K1^H” value in [14] is on record as 12.25. Moreover, the “log K2^H” value in series [14] is on record as 5.97. In addition, in series [14], the “log K3^H” value was 3.47. Further, in series [14], the “log K4^H” value is reported as 1.99. For the same molecule, the “Σlog Κ2^H” value in series [14] is 18.22.

Consider `O=C([O-])CN(CC(=O)[O-])C1CCCCC1N(CC(=O)[O-])Cc1ccccn1.[Mn+2]` (stereo not shown) [[Mn(PyC3A)]], for which, in series [6], the kobs entry is “(6.76 ± 0.04) × 10^−4 s^−1”.

As for `O=C(O)CN1CCOCCN(CC(=O)O)CCOCC1` [H21,7-O2DO2A], the r1p in series [9] (setting [16]) is 2.86 mM⁻¹ s⁻¹. The “log KMnLOH” value in series [5] (Mn^2+ complex, I = 0.15 M NaCl) is 12.38; in series [10], 11.95; in series [12] (DO2A values carry footnote f, ref 12 (DO2A ligands), 20 (H21,7-O2DO2A)) it was 11.40. For the same molecule, the “log KMnL” value in [5] (setting [17]) is 9.38; in series [10], 14.56; in [11] (setting [18]), 3.91; in [12] (setting [19]), 10.55; in series [13] (setting [20]), 6.96. For the same molecule, the pMn in [5] (setting [15]) was 6.67. For the same molecule, in series [10], the “log KMnHL” value is 2.46. Further, the “log K1^H” value in [14] is listed as 8.05. Also, in series [14], the “log K2^H” value was 7.43. For the same molecule, in series [14], the “log K3^H” value is reported as 2.06. Besides, the “Σlog Κ2^H” value in [14] was 15.48.

Values taken from PMC8778187, “A New Oxygen Containing Pyclen-Type Ligand as a Manganese(II) Binder for MRI and ^52Mn PET Applications: Equilibrium, Kinetic, Relaxometric, Structural and Radiochemical Studies” (Molecules, 2022).
